Reference: patent publication US11753407B2, “Compounds for treating spinal muscular atrophy” (PTC Therapeutics, Inc., priority 2012, dated 2023)

Columns and labels:
[1] = test system: neonatal SMA Δ7 homozygous knockout mice; assay: Survival of neonatal Δ7 SMA mice; type: in vivo
Description: The change in the number of surviving mice over time is used to determine whether treatment with a test compound improves survival.
Protocol. SMA Δ7 homozygous knockout mice are dosed intraperitoneally (IP) with test compound or vehicle (100% DMSO) QD from PND 3 until the dose regimen is switched to an oral dose BID in 0.5% hydroxypropylmethyl cellulose (HPMC) with 0.1% Tween-80 at a dose 3.16-fold higher than the dose used for IP and later switched to an oral dose QD in 0.5% hydroxypropylmethyl cellulose (HPMC) with 0.1% Tween-80 at a dose 6.32-fold higher than the dose used for IP. The number of surviving mice in each group is recorded every day and plotted as a percent of total number of mice. Tissues of SMA Δ7 and age-matched heterozygous mice are collected for the measurement of Smn protein levels and processed as detailed in Example 10. The total protein normalized Smn protein levels measured in the tissues are plotted as a percent of those in the age-matched heterozygous mice tissues, with the Smn level in heterozygous mice set to 100 percent. The level of Smn protein in the test compound treated mice tissue relative to that in heterozygous mice tissue is indicated as a percent value above each bar in the graph.

[2] = test system: neonatal SMA Δ7 homozygous knockout mice; assay: Righting reflex in neonatal Δ7 SMA mice; type: in vivo; conditions: IP QD from PND 3, versus vehicle (FIG. 14)
Description: The functional change in righting reflex of neonatal SMA mice is used to determine whether treatment with a test compound improves righting reflex.
Protocol. SMA Δ7 homozygous knockout mice are dosed intraperitoneally (IP) with test compound or vehicle (100% DMSO) QD from PND 3 until the dose regimen is switched to an oral dose BID in 0.5% hydroxypropylmethyl cellulose (HPMC) with 0.1% Tween-80 at a dose 3.16-fold higher than the dose used for IP. The righting reflex time is measured as the time taken by a mouse to flip over onto its feet after being laid on its back. Righting reflex is measured five times for each mouse (allowing a maximal time of 30 sec for each try) with 5 minutes between each measurement. The righting reflex time for SMA Δ7 homozygous knockout mice treated with test compound or vehicle and age-matched heterozygous mice is measured on PND 10, 14 and 18 and plotted.

[3] = test system: gems (Smn protein nuclear foci) in SMA patient fibroblast cells (GM03813); assay: Gems count (Smn-dependent nuclear speckle count) assay; type: cell-based, human; conditions: SMA Type 1 patient cells, 48 hours, relative to DMSO (FIG. 9)
Source text: The level of Smn protein directly correlates with the amount of nuclear foci, also known as gems, produced upon staining the cell with a fluorescently labeled anti-Smn antibody (Liu and Dreyfuss, EMBO J., 1996, 15:3555). Gems are multi-protein complexes whose formation is nucleated by the Smn protein and the gems count assay is used to evaluate the level of Smn protein in the cell. As described herein, the gems count assay is used to quantify the level of Smn protein in SMA patient fibroblast cells treated with a test compound.
Protocol: Cells are thawed and incubated in DMEM-10% FBS for 72 hours, then trypsinized, counted and resuspended to 100,000 cells/mL in DMEM-10% FBS. The cell suspension (2 mL) is plated in a 6-well cell culture plate with a sterile cover slip and incubated for 3 to 5 hours. Test compounds are serially diluted 3.16-fold in 100% DMSO to generate a 7-point dilution curve. […]
Cell culture medium is aspirated from the wells containing cover slips and gently washed three times with cold PBS. […] The number of gems is counted per >150 nuclei and % activation is calculated using DMSO and 10 nM bortezomib as controls. For each test compound, the cells are examined at all wavelengths to identify test compounds with inherent fluorescence.

Row | Compound | survival ([1]; IP QD PND 3 to PND 30, then orally BID from PND 31 until study end (FIG. 15a)) | righting reflex [2] | gems (nuclear speckle count) [3] | survival ([1]; IP QD PND 3 to PND 23, then orally BID from PND 24 until study end (FIG. 15b))
1 | COc1ccc(-c2cc(=O)n3cc(N4CCNCC4)ccc3n2)cc1OC [Cpd 6, 2-(3,4-dimethoxyphenyl)-7-(piperazin-1-yl)-4H-pyrido[1,2-a]pyrimidin-4-one] | improved compared to vehicle treated mice | improved compared to vehicle treated mice | progressively more gems | 
2 | Cc1cn2nc(-c3cc(=O)n4cc(N5CCN(C)CC5)ccc4n3)cc2c(C)n1 [Cpd 170, 2-(4,6-dimethylpyrazolo[1,5-a]pyrazin-2-yl)-7-(4-methylpiperazin-1-yl)-4H-pyrido[1,2-a]pyrimidin-4-one] |  | improved compared to vehicle treated mice | progressively more gems | improved compared to vehicle treated mice
